Experimental data from patent publication US11897865B2, “ABHD12 inhibitors and methods of making and using same” (THE SCRIPPS RESEARCH INSTITUTE, priority 2018, dated 2024).

What follows are compounds tested against T1, ABHD12 (Mus musculus, UniProt Q99LR1) (assay: Gel-based competitive ABPP, JJH350 probe vs brain membrane proteome). Conditions: 10 μM compound, read-out: % Inhibition @ 10 μM (ABPP gel_JJH350 probe vs brain mem).
T1 construct: from tissue; host or cells: brain membrane proteome
T1 sequence (Q99LR1 1-398): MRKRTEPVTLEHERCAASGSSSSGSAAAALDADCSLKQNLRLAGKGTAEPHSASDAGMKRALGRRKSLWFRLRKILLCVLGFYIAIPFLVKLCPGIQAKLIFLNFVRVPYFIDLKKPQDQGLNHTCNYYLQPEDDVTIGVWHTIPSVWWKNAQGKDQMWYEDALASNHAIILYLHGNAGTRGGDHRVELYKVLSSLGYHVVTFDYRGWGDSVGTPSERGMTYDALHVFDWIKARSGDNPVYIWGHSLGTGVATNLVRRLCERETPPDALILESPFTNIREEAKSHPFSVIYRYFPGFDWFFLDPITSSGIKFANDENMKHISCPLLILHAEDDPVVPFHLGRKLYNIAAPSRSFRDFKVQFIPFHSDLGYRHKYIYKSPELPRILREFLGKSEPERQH
Format: biochemical
Procedure: Gel-Based Competitive ABPP for In Vitro Inhibitor Treatment of Proteomes:
Gel-based ABPP assays were performed as previously reported (Bachovchin, D. A. et al. Superfamily-wide portrait of serine hydrolase inhibition achieved by library-versus-library screening. Proc. Natl. Acad. Sci. U. S. A. 2010, 107, 20941-20946). Cell or tissue proteomes (50 μL, 1 mg/mL) were treated with either FP-Rh (1 μM final concentration) or JJH350 (2 μM final concentration) for 45 min at 37° C. For FP-Rh labeled samples, the reactions were quenched by adding 20 μL of 4× SDS-PAGE loading buffer. The 30 μL of the quenched samples were loaded on gel for analysis. For (S)-1,3-dioxo-7-(4-phenoxybenzoyl)hexahydroimidazo[1,5-a]pyrazin-2(3H)-yl 4-(4-(prop-2-yn-1-yloxy)phenyl)piperazine-1-carboxylate (JJH350)-labeled samples, copper-catalyzed azide-alkyne cycloaddition (CuAAC) was used for visualizing the labeled proteins following the reported protocol. Briefly, rhodamine-PEG3-N3 (1 μL/reaction, 1.25 mM in DMSO), CuSO4 (1 μL/reaction, 50 mM in H2O), TBTA (3 μL/reaction, 1.7 mM in DMSO/t-BuOH [1:4, v/v]) and tris(2-carboxyethyi)phosphine (TCEP) (1 μL/reaction, 50 mM in H2O, freshly prepared) were premixed. 6 μL of this click reagent mixture was immediately added to each JJH350-labeled samples (50 μL, 1 mg/mL) and incubated for 1 h at room temperature. The reactions were quenched by adding 20 μL of 4× SDS-PAGE loading buffer. The 40 μL of the quenched samples were loaded on a gel for analysis.
After separation by SDS-PAGE (10% acrylamide), samples were visualized by in-gel fluorescence scanning using the ChemiDoc MP system (Bio-Rad). Band intensities were quantified using the Image Lab (5.2.1) software (Bio-Rad).

**Q.** Which inhibition at 10 µM does the source give for `Cc1cnc(N2CCC(NC(=S)Nc3cccnc3)CC2)c(Cl)c1` [Example 8, 1-(1-(3-Chloro-5-methylpyridin-2-yl)piperidin-4-yl)-3-(pyridin-3-yl)thiourea] here?
**A.** The inhibition at 10 µM was at least 75%.

**Q.** For `CCCCCc1ccc(Oc2ccnc(N3CCC(NC(=S)Nc4cccnc4)CC3)c2)cc1` [Example 61, 1-(1-(4-(4-Pentylphenoxy)pyridin-2-yl)piperidin-4-yl)-3-(pyridin-3-yl)thiourea], which inhibition at 10 µM is on record?
**A.** The inhibition at 10 µM was at least 75%.

**Q.** With `FC(F)(F)c1ccccc1-c1ccnc(N2CCC(NC(=S)Nc3cccnc3)CC2)c1` [Example 24, 1-(pyridin-3-yl)-3-(1-(4-(2-(trifluoromethyl)phenyl)pyridin-2-yl)piperidin-4-yl)thiourea] as the compound, how does the inhibition at 10 µM read?
**A.** The inhibition at 10 µM was 50 to 75%.

**Q.** Which inhibition at 10 µM does the source give for `CC(=O)c1ccnc(N2CCC(NC(=S)Nc3cccnc3)CC2)c1` [Example 76, 1-(1-(4-Acetylpyridin-2-yl)piperidin-4-yl)-3-(pyridin-3-yl)thiourea] here?
**A.** The inhibition at 10 µM was 25 to 50%.

**Q.** Which inhibition at 10 µM does the source give for `S=C(Nc1cccnc1)NC1CCN(c2ccc(Cl)nc2)CC1` [Example 19, 1-(1-(6-Chloropyridin-3-yl)piperidin-4-yl)-3-(pyridin-3-yl)thiourea] here?
**A.** Its inhibition at 10 µM is 0 to 25%.

**Q.** Which inhibition at 10 µM does the source give for `FC1(F)CCC(Oc2ccnc(N3CCC(NC(=S)Nc4cccnc4)CC3)c2)CC1` [Example 35, 1-(1-(4-((4,4-Difluoro-cyclohexyl)oxy)pyridin-2-yl)piperidin-4-yl)-3-(pyridin-3-yl)thiourea] here?
**A.** The inhibition at 10 µM was at least 75%.

**Q.** `FC(F)(F)Oc1cccc(Oc2ccnc(N3CCC(NC(=S)Nc4cccnc4)CC3)c2)c1` [Example 49, 1-(Pyridin-3-yl)-3-(1-(4-(3-(trifluoromethoxy)phenoxy)pyridin-2-yl)piperidin-4-yl)thiourea] was tested. Which inhibition at 10 µM did it give?
**A.** The inhibition at 10 µM was at least 75%.

**Q.** Which inhibition at 10 µM does the source give for `COc1ccc(-c2ccnc(N3CCC(NC(=S)Nc4cccnc4)CC3)c2)cc1` [Example 46, 1-(1-(4-(4-Methoxyphenyl)pyridin-2-yl)piperidin-4-yl)-3-(pyridin-3-yl)thiourea] here?
**A.** Its inhibition at 10 µM is 0 to 25%.

**Q.** How did the inhibition at 10 µM turn out when `Fc1cc(C(F)(F)F)cnc1N1CCC(NC(=S)Nc2cccnc2)CC1` [Example 21, 1-(1-(3-Fluoro-5-(trifluoromethyl)pyridin-2-yl)piperidin-4-yl)-3-(pyridin-3-yl)thiourea] was run?
**A.** Its inhibition at 10 µM is at least 75%.

**Q.** Which inhibition at 10 µM does the source give for `S=C(Nc1cccnc1)NC1CCN(c2cc(OCc3ccccc3)ccn2)CC1` [Example 37, 1-(1-(4-(Benzyloxy)pyridin-2-yl)piperidin-4-yl)-3-(pyridin-3-yl)thiourea] here?
**A.** Its inhibition at 10 µM is at least 75%.

**Q.** Which inhibition at 10 µM does the source give for `FC(F)(F)Oc1ccc(Oc2cc(N3CCC(NC(=S)Nc4cccnc4)CC3)nc(C(F)(F)F)c2)cc1` [Example 60, 1-(Pyridin-3-yl)-3-(1-(4-(4-(trifluoromethoxy)phenoxy)-6-(trifluoromethyl)pyridin-2-yl)piperidin-4-yl)thiourea] here?
**A.** The inhibition at 10 µM was 0 to 25%.

**Q.** How did the inhibition at 10 µM turn out when `FC(F)(F)c1cnc(N2CCC(NC(=S)Nc3cccnc3)CC2)nc1` [Example 78, 1-(Pyridin-3-yl)-3-(1-(5-(trifluoromethyl)pyrimidin-2-yl)piperidin-4-yl)thiourea] was run?
**A.** The inhibition at 10 µM was 50 to 75%.

**Q.** For `CN(C(=S)Nc1cccnc1)C1CCN(c2ncc(C(F)(F)F)cc2Cl)CC1` [Example 82, 1-(1-(3-Chloro-5-(trifluoromethyl)pyridin-2-yl)piperidin-4-yl)-1-methyl-3-(pyridin-3-yl)thiourea], which inhibition at 10 µM is on record?
**A.** The inhibition at 10 µM was 50 to 75%.

**Q.** How did the inhibition at 10 µM turn out when `FC(F)(F)c1cnc(N2CCCC(NC(=S)Nc3cccnc3)CC2)c(Cl)c1` (stereo not shown) [Example 80, 1-(1-(3-Chloro-5-(trifluoromethyl)pyridin-2-yl)azepan-4-yl)-3-(pyridin-3-yl)thiourea] was run?
**A.** The inhibition at 10 µM was 50 to 75%.

**Q.** Which inhibition at 10 µM does the source give for `S=C(Nc1cccnc1)NC1CCN(c2cc(OCC3CC3)ccn2)CC1` [Example 31, 1-(1-(4- (Cyclopropylmethoxy)pyridin-2-yl)piperidin-4-yl)-3-(pyridin-3-yl)thiourea] here?
**A.** Its inhibition at 10 µM is at least 75%.

**Q.** `FC(F)COc1ccnc(N2CCC(NC(=S)Nc3cccnc3)CC2)c1` [Example 32, 1-(1-(4-(2,2-Difluoroethoxy)pyridin-2-yl)piperidin-4-yl)-3-(pyridin-3-yl)thiourea] was tested. Which inhibition at 10 µM did it give?
**A.** Its inhibition at 10 µM is 50 to 75%.

**Q.** `Fc1cc(Cl)ccc1Oc1ccnc(N2CCC(NC(=S)Nc3cccnc3)CC2)c1` [Example 43, 1-(1-(4-(4-Chloro-2-fluorophenoxy)pyridin-2-yl)piperidin-4-yl)-3-(pyridin-3-yl)thiourea] was tested. Which inhibition at 10 µM did it give?
**A.** The inhibition at 10 µM was at least 75%.

**Q.** With `S=C(Nc1cccnc1)NC1CCN(c2ncccc2Cl)CC1` [Example 17, 1-(1-(3-Chloropyridin-2-yl)piperidin-4-yl)-3-(pyridin-3-yl)thiourea] as the compound, how does the inhibition at 10 µM read?
**A.** Its inhibition at 10 µM is 50 to 75%.

**Q.** Which inhibition at 10 µM does the source give for `S=C(Nc1cccnc1)NC1CCN(c2cc(OCCC3CC3)ccn2)CC1` [Example 33, 1-(1-(4-(2-Cyclopropylethoxy)pyridin-2-yl)piperidin-4-yl)-3-(pyridin-3-yl)thiourea] here?
**A.** Its inhibition at 10 µM is at least 75%.

**Q.** With `FC(F)(F)c1cnc(N2[C@@H]3CC[C@H]2CC(NC(=S)Nc2cccnc2)C3)c(Cl)c1` (stereo partly drawn) [Example 85, 1-((1R,5S)-8-(3-Chloro-5-(trifluoromethyl)pyridin-2-yl)-8-azabicyclo[3.2.1]octan-3-yl)-3-(pyridin-3-yl)thiourea] as the compound, how does the inhibition at 10 µM read?
**A.** The inhibition at 10 µM was 50 to 75%.

**Q.** With `FC(F)(F)Oc1ccccc1Oc1ccnc(N2CCC(NC(=S)Nc3cccnc3)CC2)c1` [Example 50, 1-(Pyridin-3-yl)-3-(1-(4-(2-(trifluoromethoxy)phenoxy)pyridin-2-yl)piperidin-4-yl)thiourea] as the compound, how does the inhibition at 10 µM read?
**A.** The inhibition at 10 µM was at least 75%.

**Q.** Which inhibition at 10 µM does the source give for `FC(F)(F)Oc1cccc(-c2ccnc(N3CCC(NC(=S)Nc4cccnc4)CC3)c2)c1` [Example 23, 1-(Pyridin-3-yl)-3-(1-(4-(3-(trifluoromethoxy)phenyl)pyridin-2-yl)piperidin-4-yl)thiourea] here?
**A.** Its inhibition at 10 µM is at least 75%.

**Q.** For `Fc1ccc(-c2ccnc(N3CCC(NC(=S)Nc4cccnc4)CC3)c2)cc1F` [Example 48, 1-(1-(4-(3,4-Difluorophenyl)pyridin-2-yl)piperidin-4-yl)-3-(pyridin-3-yl)thiourea], which inhibition at 10 µM is on record?
**A.** The inhibition at 10 µM was at least 75%.

**Q.** How did the inhibition at 10 µM turn out when `FC(F)(F)Oc1ccc(Oc2ccnc(N3CCC(NC(=S)Nc4cccnc4)CC3)c2)c(Cl)c1` [Example 55, 1-(1-(4-(2-Chloro-4-(trifluoromethoxy)phenoxy)pyridin-2-yl)piperidin-4-yl)-3-(pyridin-3-yl)thiourea] was run?
**A.** Its inhibition at 10 µM is at least 75%.

Same assay, conditions: at 2 uM compound

**Q.** `C#Cc1cnc(N2CCC(NC(=S)Nc3cccnc3)CC2)c(Cl)c1` [Example 20, 1-(1-(3-Chloro-5-ethynylpyridin-2-yl)piperidin-4-yl)-3-(pyridin-3-yl)thiourea] was tested. Which “% Inhibition (ABPP gel_JJH350 probe vs brain mem), at 2 uM” value did it give?
**A.** Its value is “B (at 2 uM) (% inhibition is greater than or equal to 50% and less than 75%)”.

Same assay, conditions: read-out: IC50 (ABPP gel_JJH350 probe vs brain mem)

**Q.** Which IC50 does the source give for `Fc1cc(Oc2ccnc(N3CCC(NC(=S)Nc4cccnc4)CC3)c2Cl)ccc1OC(F)(F)F` [Example 64, 1-(1-(3-Chloro-4-(3-fluoro-4-(trifluoromethoxy)phenoxy)pyridin-2-yl)piperidin-4-yl)-3-(pyridin-3-yl)thiourea] here?
**A.** Its IC50 is at most 0.1 µM.

**Q.** With `CC(=O)c1ccnc(N2CCC(NC(=S)Nc3cccnc3)CC2)c1` [Example 76, 1-(1-(4-Acetylpyridin-2-yl)piperidin-4-yl)-3-(pyridin-3-yl)thiourea] as the compound, how does the IC50 read?
**A.** Its IC50 is 1 to 25 µM.

**Q.** With `S=C(Nc1cccnc1)NC1CCN(c2cc(OCc3ccccc3)ccn2)CC1` [Example 37, 1-(1-(4-(Benzyloxy)pyridin-2-yl)piperidin-4-yl)-3-(pyridin-3-yl)thiourea] as the compound, how does the IC50 read?
**A.** Its IC50 is 1 to 25 µM.

**Q.** How did the IC50 turn out when `Cc1ccc(Oc2ccnc(N3CCC(NC(=S)Nc4cccnc4)CC3)c2)cc1` [Example 75, 1-(Pyridin-3-yl)-3-(1-(4-(p-tolyloxy)pyridin-2-yl)piperidin-4-yl)thiourea] was run?
**A.** The IC50 was 1 to 25 µM.

**Q.** How did the IC50 turn out when `S=C(Nc1cccnc1)NC1CCN(c2cc(OCC3CC3)ccn2)CC1` [Example 31, 1-(1-(4- (Cyclopropylmethoxy)pyridin-2-yl)piperidin-4-yl)-3-(pyridin-3-yl)thiourea] was run?
**A.** Its IC50 is 1 to 25 µM.

**Q.** With `Cc1cc(OC(F)(F)F)ccc1Oc1ccnc(N2CCC(NC(=S)Nc3cccnc3)CC2)c1Cl` [Example 73, 1-(1-(3-Chloro-4-(2-methyl-4-(trifluoromethoxy)phenoxy)pyridin-2-yl)piperidin-4-yl)-3-(pyridin-3-yl)thiourea] as the compound, how does the IC50 read?
**A.** Its IC50 is at most 0.1 µM.
